{"source": "PubChem BioAssay AID1259409", "about": "(Chemical Carcinogenesis Research Information System (CCRIS), 2018)", "origin": "cited, not measured here", "tested_on": "rodent chemically induced tumor inhibition, incidence and multiplicity", "experiment": "CCRIS tumor inhibitor studies", "settings": "for tumour outcome (control, treated, inhibition, significance): Promoter: NONE USED", "note": "Where a SMILES comes first, the peptide text is derived from it. [ ]: non-standard residue; d: D form. The star is where a group is joined. Sta = CC(C)C[C@H](N)[C@@H](O)CC(=O)O; Isovaleryl = CC(C)CC(=O)*", "data": [{"smiles": "CC(C)CC(=O)N[C@H](C(=O)N[C@H](C(=O)N[C@@H](CC(C)C)[C@@H](O)CC(=O)N[C@@H](C)C(=O)N[C@@H](CC(C)C)[C@@H](O)CC(=O)O)C(C)C)C(C)C", "note": "(Isovaleryl-VV[Sta]A[Sta]-OH)", "values": [{"measurement": "tumour outcome (control, treated, inhibition, significance)", "setting": "Carcinogen: 1,2,3,4,5,6-HEXACHLOROCYCLOHEXANE, 319-84-6, Dose [Inhibitor]: 0.1% IN DIET FOR 12 WK FOLLOWING CARCINOGEN TREATMENT REGIMEN (STUDY DURATION: 48 WK), Route [Inhibitor]: ORAL, Species: MOUSE, Strain/Sex: DDY/MALE, Target Tissue: Type of Lesion: LIVER: NODULAR HYPERPLASIA, Dose [Carcinogen]: 500 PPM IN DIET FOR 24 WK", "value": "1/13 (8%), 1/12 (8%), 0%, not significant"}, {"measurement": "tumour outcome (control, treated, inhibition, significance)", "setting": "Carcinogen: N-BUTYL-N-(4-HYDROXY-BUTYL)NITROSAMINE, 3817-11-6, Dose [Inhibitor]: 0.1% IN DIET FOR 32 WK FOLLOWING CARCINOGEN TREATMENT REGIMEN (STUDY DURATION: 40 WK), Route [Inhibitor]: ORAL, Species: MOUSE, Strain/Sex: ICR/MALE, Target Tissue: Type of Lesion: URINARY BLADDER: TUMOR, Dose [Carcinogen]: 0.05% IN DRINKING WATER FOR FIRST 8 WK", "value": "6/13 (46%), 8/10 (80%), -74%, not calculated"}]}, {"smiles": "CSCC[C@H](NC(C)=O)C(=O)O", "values": [{"measurement": "tumour outcome (control, treated, inhibition, significance)", "setting": "Carcinogen: 7,12-DIMETHYLBENZ[A]ANTHRACENE, 57-97-6, Dose [Inhibitor]: 0.06 MMOL/G DIET DAILY FOR 17 WK STARTING 1 WK PRIOR TO CARCINOGEN TREATMENT AND CONTINUING THROUGH THE END OF THE STUDY, Route [Inhibitor]: ORAL, Species: RAT, Strain/Sex: SPRAGUE-DAWLEY/FEMALE, Target Tissue: Type of Lesion: MAMMARY GLAND: TUMOR, Dose [Carcinogen]: 12 MG IN 1 ML OLIVE OIL ONCE", "value": "59%, 69%, -17%, not calculated"}]}, {"smiles": "CC(=O)/C=C/C1=C(C)CCCC1(C)C", "values": [{"measurement": "tumour outcome (control, treated, inhibition, significance)", "setting": "Carcinogen: 7,12-DIMETHYLBENZ[A]ANTHRACENE, 57-97-6, Dose [Inhibitor]: 0, 36 MMOL/KG IN DIET FOR 24 WK BEGINNING 2 WK PRIOR TO CARCINOGEN DOSE (STUDY DURATION: 24 WK), Route [Inhibitor]: ORAL, Species: RAT, Strain/Sex: SPRAGUE-DAWLEY/FEMALE, Target Tissue: Type of Lesion: MAMMARY GLAND: TUMOR, Dose [Carcinogen]: 65 MG/KG BW ONCE", "value": "91%, 41%, 55%, not calculated"}, {"measurement": "tumour outcome (control, treated, inhibition, significance)", "setting": "Dose [Inhibitor]: 0, 1000 PPM IN DIET BEGINNING 8 WK PRIOR TO CARCINOGEN AND CONTINUING FOR 6 WK POST CARCINOGEN (STUDY DURATION: 68 WK), Route [Inhibitor]: ORAL, Species: FISH, Strain/Sex: RAINBOW TROUT, Target Tissue: Type of Lesion: LIVER: HEPATOCELLULAR CARCINOMA, Dose [Carcinogen]: 20 PPB IN DIET FOR 2 WK", "value": "43/118 (36%), 38/118 (32%), 11%, not significant"}]}, {"smiles": "CC1=C(/C=C/C(C)=C/C=C/C(C)=C/C(=O)Nc2ccc(C(=O)O)cc2)C(C)(C)CCC1", "values": [{"measurement": "tumour outcome (control, treated, inhibition, significance)", "setting": "Carcinogen: L-AZASERINE, 115-02-6, Dose [Inhibitor]: 1 MMOL/KG DIET DAILY FOR 91 D FOLLOWED BY 0.5 MMOL/KG DIET DAILY FOR 246 D DURING A 358 D PERIOD STARTING 1 WK AFTER COM, Route [Inhibitor]: ORAL, Species: RAT, Strain/Sex: WISTAR-LEWIS/FEMALE, Target Tissue: Type of Lesion: PANCREAS: ADENOMA, Dose [Carcinogen]: 10 MG/KG BW 1/WK FOR 15 WK", "value": "35%, 38%, -9%, not significant"}, {"measurement": "tumour outcome (control, treated, inhibition, significance)", "setting": "Carcinogen: L-AZASERINE, 115-02-6, Dose [Inhibitor]: 1 MMOL/KG DIET DAILY FOR 91 D FOLLOWED BY 0.5 MMOL/KG DIET DAILY FOR 246 D DURING A 358 D PERIOD STARTING 1 WK AFTER COM, Route [Inhibitor]: ORAL, Species: RAT, Strain/Sex: WISTAR-LEWIS/FEMALE, Target Tissue: Type of Lesion: PANCREAS: CARCINOMA IN SITU, Dose [Carcinogen]: 10 MG/KG BW 1/WK FOR 15 WK", "value": "48%, 8%, 83%, not significant"}, {"measurement": "tumour outcome (control, treated, inhibition, significance)", "setting": "Carcinogen: L-AZASERINE, 115-02-6, Dose [Inhibitor]: 1 MMOL/KG DIET DAILY FOR 91 D FOLLOWED BY 0.5 MMOL/KG DIET DAILY FOR 246 D DURING A 358 D PERIOD STARTING 1 WK AFTER COM, Route [Inhibitor]: ORAL, Species: RAT, Strain/Sex: WISTAR-LEWIS/FEMALE, Target Tissue: Type of Lesion: PANCREAS: CARCINOMA, Dose [Carcinogen]: 10 MG/KG BW 1/WK FOR 15 WK", "value": "4%, 0%, 100%, not significant"}, {"measurement": "tumour outcome (control, treated, inhibition, significance)", "setting": "Carcinogen: L-AZASERINE, 115-02-6, Dose [Inhibitor]: 1 MMOL/KG DIET DAILY FOR 91 D FOLLOWED BY 0.5 MMOL/KG DIET DAILY FOR 246 D DURING A 358 D PERIOD STARTING 1 WK AFTER COM, Route [Inhibitor]: ORAL, Species: RAT, Strain/Sex: WISTAR-LEWIS/FEMALE, Target Tissue: Type of Lesion: PANCREAS: NEOPLASM, Dose [Carcinogen]: 10 MG/KG BW 1/WK FOR 15 WK STARTING 15 WK", "value": "87%, 46%, 47%, p<0.05"}, {"measurement": "tumour outcome (control, treated, inhibition, significance)", "setting": "Carcinogen: L-AZASERINE, 115-02-6, Dose [Inhibitor]: 1 MMOL/KG DIET DAILY FOR 91 D FOLLOWED BY 0.5 MMOL/KG DIET DAILY FOR 246 D DURING A 358 D PERIOD STARTING 1 WK AFTER COM, Route [Inhibitor]: ORAL, Species: RAT, Strain/Sex: WISTAR-LEWIS/MALE, Target Tissue: Type of Lesion: PANCREAS: ADENOMA, Dose [Carcinogen]: 10 MG/KG BW 1/WK FOR 15 WK", "value": "29%, 16%, 45%, not significant"}, {"measurement": "tumour outcome (control, treated, inhibition, significance)", "setting": "Carcinogen: L-AZASERINE, 115-02-6, Dose [Inhibitor]: 1 MMOL/KG DIET DAILY FOR 91 D FOLLOWED BY 0.5 MMOL/KG DIET DAILY FOR 246 D DURING A 358 D PERIOD STARTING 1 WK AFTER COM, Route [Inhibitor]: ORAL, Species: RAT, Strain/Sex: WISTAR-LEWIS/MALE, Target Tissue: Type of Lesion: PANCREAS: CARCINOMA IN SITU, Dose [Carcinogen]: 10 MG/KG BW 1/WK FOR 15 WK", "value": "58%, 64%, -10%, not significant"}, {"measurement": "tumour outcome (control, treated, inhibition, significance)", "setting": "Carcinogen: L-AZASERINE, 115-02-6, Dose [Inhibitor]: 1 MMOL/KG DIET DAILY FOR 91 D FOLLOWED BY 0.5 MMOL/KG DIET DAILY FOR 246 D DURING A 358 D PERIOD STARTING 1 WK AFTER COM, Route [Inhibitor]: ORAL, Species: RAT, Strain/Sex: WISTAR-LEWIS/MALE, Target Tissue: Type of Lesion: PANCREAS: CARCINOMA, Dose [Carcinogen]: 10 MG/KG BW 1/WK FOR 15 WK", "value": "8%, 16%, -100%, not significant"}, {"measurement": "tumour outcome (control, treated, inhibition, significance)", "setting": "Carcinogen: L-AZASERINE, 115-02-6, Dose [Inhibitor]: 1 MMOL/KG DIET DAILY FOR 91 D FOLLOWED BY 0.5 MMOL/KG DIET DAILY FOR 246 D DURING A 358 D PERIOD STARTING 1 WK AFTER COM, Route [Inhibitor]: ORAL, Species: RAT, Strain/Sex: WISTAR-LEWIS/MALE, Target Tissue: Type of Lesion: PANCREAS: NEOPLASM, Dose [Carcinogen]: 10 MG/KG BW 1/WK FOR 15 WK", "value": "95%, 96%, -1%, not significant"}]}, {"smiles": "CCCCC[Se]C#N", "values": [{"measurement": "tumour outcome (control, treated, inhibition, significance)", "setting": "Carcinogen: 7,12-DIMETHYLBENZ[A]ANTHRACENE, 57-97-6, Dose [Inhibitor]: 0.1, 2 PPM (SELENIUM) IN DIET FOR 3 WK BEGINNING 2 WK PRIOR TO CARCINOGEN DOSE (STUDY DURATION: 25 WK), Route [Inhibitor]: ORAL, Species: RAT, Strain/Sex: SPRAGUE-DAWLEY/FEMALE, Target Tissue: Type of Lesion: MAMMARY GLAND: TUMOR, Dose [Carcinogen]: 10 MG ONCE", "value": "25/30 (83%), 11/30 (37%), 55%, p<0.05"}]}, {"smiles": "CCCCC(C)(O)C/C=C/[C@H]1[C@H](O)CC(=O)[C@@H]1CCCCCCC(=O)OC", "note": "(some centres not stated)", "values": [{"measurement": "tumour outcome (control, treated, inhibition, significance)", "setting": "Carcinogen: N-METHYL-N'-NITRO-N-NITROSOGUANIDINE, 70-25-7, Dose [Inhibitor]: 0, 200 UG/KG/D IN DRINKING WATER FOR 52 WK CONCURRENTLY WITH CARCINOGEN TREATMENT (STUDY DURATION: 52 WK), Route [Inhibitor]: ORAL, Species: RAT, Strain/Sex: SPRAGUE-DAWLEY/MALE, Target Tissue: Type of Lesion: GLANDULAR STOMACH: ADENOCARCINOMA, Dose [Carcinogen]: 120 MG/L IN DRINKING WATER FOR 52 WK", "value": "9/15 (60%), 5/20 (25%), 58%, p<0.05"}]}, {"smiles": "CCCCC1OC(=O)c2ccccc21", "note": "(configuration not stated)", "values": [{"measurement": "tumour outcome (control, treated, inhibition, significance)", "setting": "Carcinogen: BENZO[A]PYRENE, 50-32-8, Dose [Inhibitor]: 0, 20 MG 3/WK FOR 4 WK ON DAYS OTHER THAN THE CARCINOGEN TREATMENT (STUDY DURATION: 20 WK), Route [Inhibitor]: GAVAGE, Species: MOUSE, Strain/Sex: STRAIN-A/FEMALE, Target Tissue: Type of Lesion: FORESTOMACH: TUMOR, Dose [Carcinogen]: 1 MG IN 0.2 ML COTTONSEED OIL 2/WK FOR 4 WK", "value": "13/19 (68%), 6/20 (30%), 56%, p<0.005"}]}, {"smiles": "NC(N)=S", "values": [{"measurement": "outcome", "setting": "Carcinogen: N-BIS-(2-HYDROXYPROPYL)NITROSAMINE [53609-64-6], Dose [Inhibitor]: 0, 0.2% IN DIET 4 WK BEGINNING 1 WK POST CARCINOGEN DOSE (STUDY DURATION: 5 WK), Route [Inhibitor]: ORAL, Species: RAT, Strain/Sex: F344/DUCRJ/MALE, Target Tissue: Type of Lesion: THYROID GLAND: ADENOMATOUS GROWTH PATTERN, Dose [Carcinogen]: 2800 MG/KG BW ONCE (STUDY DURATION: 5 WK), Promoter: NONE", "value": "0%, 30%, -100%, not significant"}]}]}
